# Entries after “also recorded” stand apart in the source; their conditions may differ.
# Experiments:
# 4T1 cells = assay: 4T1-shNC or 4T1-shRab27A tumors in Balb/c nude mice; format: in vivo, mouse; conditions: 30 mg/kg, daily, oral gavage
# Protocol: Inventors also implant control or Rab27a-knockout 4T1 cells into the fat pads of female Balb/c nude mice. The mice are randomly divided (n=4 per group) and treated with either buffer or 6J1 (30 mg/kg, daily) via oral gavage.
# PD-L1 = assay: Plasma membrane PD-L1 level in HeLa cells (flow cytometry, confocal imaging); format: cell-based; conditions: 1 μM, 24 h
# Protocol: Next, inventors assess if 6J1 can compromise PD-L1 trafficking. PDL1-GFP stable expressing HeLa cells are treated with or without 6J1 (1 μM) for 24 h. Cells are fixed and stained with Rab5 or EEA1. Their quantifications of the colocalization are shown in FIGS. 4d and 4e, respectively. […] Inventors thus further quantify cell membrane PD-L1 levels in live cells treated with or without 6J1 by flow cytometry or confocal imaging.
# (§1) Moreover, ATG5- or LC3-knockout HeLa cells are treated with or without 6J1 (1 μM) for 24 h. The supernatant is collected, and the concentration of the extracellular vesicle is determined using a Nanosight nanoparticle analyzer. The exosomes are also collected and subjected to western blot analysis of the EVs marker and PD-L1 in FIG. 7a. The live cells are also labeled with an anti-PD-L1 antibody in FIG. 7b and subjected to flow cytometry analysis in FIG. 7c. […] In addition, inventors assess whether other autophagy-related genes, e.g., ATG4B, ATG7, Beclin1, and Vps34 are involved in 6J1-mediated exosomal PD-L1 secretion. ATG4B-, ATG7-, Beclin1-, or VPS34-knockout HeLa cells are treated with or without 6J1 (1 μM) for 24 h. The supernatant is collected, and the concentration of extracellular vesicle is determined using a Nanosight nanoparticle analyzer. The exosomes are also collected and subjected to western blot analysis of the EVs marker and PD-L1 in FIG. 7d. The live cells are also labeled with an anti-PD-L1 antibody and subjected to flow cytometry analysis in FIG. 7e.
# HeLa cells = assay: Extracellular vesicle concentration, Nanosight nanoparticle analyzer, HeLa cells; format: cell-based; conditions: 1 μM, 24 h
# Protocol: It has previously been shown that interfering with endosomal trafficking promotes exosome secretion. Moreover, PD-L1 has been reported to be enriched in exosomes and secreted outside the cell. Thus, inventors speculate that 6J1 may induce the secretion of the PD-L1 trapped in the endosomal compartments via exosomes. To determine whether 6J1 may induce the secretion of PD-L1 via exosomes, HeLa cells are treated with or without 6J1 (1 μM) for 24 h. The supernatant is collected. Inventors purify the exosomes from the supernatant of HeLa cells by sequential centrifugation. The concentration of extracellular vesicle is determined using a Nanosight nanoparticle analyzer. And HeLa cells are treated with or without 6J1 (1 μM) for 48 h. The cell and supernatant are collected for Western Blot analysis. […] Moreover, the activity of Rab27a in HeLa cells treated with or without 6J1 (1 μM) is examined with a GST-SHD pulldown assay.
# as §1
# 4T1 primary tumors = assay: Chemokine levels in microenvironment of 4T1 primary tumors; format: in vivo, mouse; conditions: 4T1 tumors isolated at end of experiment
# Protocol: Inventors further measure the chemokines or cytokines in these primary tumor tissues. The tumors are isolated at the end of experiments, and the chemokine levels in the microenvironment of 4T1 primary tumors treated with the vehicle or 6J1 are determined by Flow cytometry-based quantification. In FIGS. 9a-9c, data are reported in μg/ml, standardized to the excised tumor weight (in grams); each dot represents one mouse.
# B16-F10 cells = assay: B16-F10 melanoma model in C57BL/6J mice; format: in vivo, mouse; conditions: 30 mg/kg, daily, oral gavage, 4 weeks
# Protocol: Inventors also examine the anti-cancer effect of 6J1 in a melanoma xenograft mouse model, by the subcutaneous injection of B16-F10 cells in syngeneic C57BL mice. B16-F10 cells are subcutaneously injected into the flank of female C57BL/6J mice. The mice are randomly divided (n=6 per group). They are treated with either buffer or 6J1 (30 mg/kg, daily, oral gavage) after tumors reach around 5 mm for 4 weeks. After 4 weeks, the primary tumors are collected for analysis. […] In addition, a flow cytometry-based quantification of the levels of plasma membrane PD-L1 in the primary tumor is performed in FIG. 15e. […] In B16-F10 tumors, fold change of CD3+CD8+ T-cell populations, and percentage of intracellular IFN-γ in the isolated tumor-infiltrating lymphocytes (TILs) are determined by flow cytometry analysis in FIGS. 15f and 15g.
# PD-L1-knockout 4T1 cells = assay: PD-L1-knockout 4T1 tumors in Balb/c mice; format: in vivo, mouse; conditions: 30 mg/kg, daily, oral gavage
# Protocol: To assess whether the in vivo antitumor growth effect of 6J1 is related to its effect on PD-L1 in 4T1 cells, inventors knock out PD-L1 via CRISPR/Cas9 in 4T1 cells (FIG. 10a). 4T1-NC or 4T1-PD-L1 knockout cells are treated with or without 6J1 (1 μM) for 24 h. The supernatant is collected, and the concentration of extracellular vesicle is determined using a Nanosight nanoparticle analyzer. The exosomes are also collected and subjected to western blot analysis of the EVs marker and PD-L1. […] Inventors then transplant control or PD-L1-knockout 4T1 cells into the fat pad of syngeneic female Balb/c mice. The mice are randomly divided (n=5 per group) and treated with either buffer or 6J1 (30 mg/kg, daily) via oral gavage.
# [1] = ATG4B-, ATG7-, Beclin1- or VPS34-knockout HeLa cells
# [2] = ATG5- or LC3B-knockout HeLa cells
compound,measurement,setting,value
OCCOCCN(c1ccccc1)c1nc(N/N=C/c2cccc(I)c2)nc(N2CCOCC2)n1 [Compound 6J1],anti-cancer effect of 6J1 or 6J1 with Rab27a knockout in immunocompromised mice,4T1 cells,dramatically abolished
same,6J1-mediated decrease in the level of PD-L1 at the cell surface,PD-L1; [1],does not affect
same,6J1-induced decrease in the level of PD-L1 at the cell surface,PD-L1; [2],Neither ATG5 nor LC3B knockout impairs
same,expression of PD-L1 on the surface of cells,PD-L1; HeLa cells,significantly reduces the expression of PD-L1 on the surface of cells
same,6J1-induced EVs secretion,HeLa cells; [1],fails to abolish
same,6J1-induced EVs secretion,HeLa cells; [2],Neither ATG5 nor LC3B knockout impairs
same,exosome secretion (extracellular vesicle concentration),HeLa cells; HeLa cells,dramatically induces exosome secretion
same,"secretion of chemokines CCL2, CCL3, CCL4, CXCL9 in tumor microenvironment",4T1 primary tumors,significantly increases the secretion of some chemokines
same,"secretion of chemokines CCL5, CCL11, CCL17, CCL22, CXCL1, CXCL5, CXCL10, CXCL13 in tumor microenvironment",4T1 primary tumors,little or only subtle effects on others; also recorded: little or only subtly effects on others
same,animal's body weight,B16-F10 cells,without affecting the animal's body weight
same,expression of IFN-γ in tumor-infiltrating lymphocytes,B16-F10 cells,only subtly increases the expression of IFN-γ
same,growth of B16-F10 tumors,B16-F10 cells,markedly inhibits the growth of B16-F10 tumors
same,levels of PD-L1 at the cell surface of the primary tumors,B16-F10 cells,significantly decreases the levels of PD-L1 at the cell surface of the primary tumors
same,percentage of tumor-infiltrating CD8+ T cell populations,B16-F10 cells,markedly increases the percentage of tumor-infiltrating CD8+ T cell populations
same,tumor growth in mice implanted with PD-L1-knockout 4T1 cells,PD-L1-knockout 4T1 cells,fails to decrease further tumor growth
